Test results taken from USRE47221E1, “Tricyclic compounds” (AbbVie Inc., priority 2009, dated 2019).
Counter-ions that a name gives are not always drawn. Blank lines part the entries; values can stand above or below the compound they belong to.

Experiments:
[1] = target: T1, Jak3 (Homo sapiens, UniProt P52333); test: Jak3 enzyme data for selected compounds; format: biochemical
T1 construct: Jak3 enzyme (aa 811-1103); expressed in SF9 cells as a GST fusion; GST; made in house; host or cells: SF9 insect cells
T1 sequence (P52333 811-1103): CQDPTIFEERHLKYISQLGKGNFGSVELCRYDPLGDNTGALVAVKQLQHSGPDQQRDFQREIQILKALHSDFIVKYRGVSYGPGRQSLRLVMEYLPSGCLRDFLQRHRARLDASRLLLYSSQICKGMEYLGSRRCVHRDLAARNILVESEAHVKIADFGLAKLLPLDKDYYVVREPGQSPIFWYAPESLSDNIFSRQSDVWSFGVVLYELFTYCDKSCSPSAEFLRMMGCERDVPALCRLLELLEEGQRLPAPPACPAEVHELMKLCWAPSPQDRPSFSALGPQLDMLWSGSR

SMILES: C[C@@H]1C[C@H](NS(=O)(=O)CCC(F)(F)F)C[C@@H]1c1cnc2cnc3[nH]ccc3n12 [Example #7, N-((1S,3S,4R)-3-(3H-imidazo[1,2-a]pyrrolo[2,3-e]pyrazin-8-yl)-4-methylcyclopentyl)-3,3,3-trifluoropropane-1-sulfonamide]
melting point: 225 °C

SMILES: c1cc2c(ncc3ncn(C4CCCCC4)c32)[nH]1 [Example #21, 1-cyclohexyl-1,6-dihydroimidazo[4,5-d]pyrrolo[2,3-b]pyridine]
IC50 [1]: 0.1 to 1 µM

SMILES: CC[C@@H]1C[C@H](OC2CCOCC2)C[C@@H]1c1nnc2cnc3[nH]ccc3n12 [Example #22, 1-((1S,2R,4S)-2-ethyl-4-(tetrahydro-2H-pyran-4-yloxy)cyclopentyl)-6H-pyrrolo[2,3-e][1,2,4]triazolo[4,3-a]pyrazine]
IC50 [1]: > 1 µM

SMILES: CC[C@@H]1C[C@H](Nc2cnc(C#N)cn2)CN1c1ncc2cnc3[nH]ccc3n12 [Example #26, 5-((3S,5R)-5-ethyl-1-(6H-imidazo[1,5-a]pyrrolo[2,3-e]pyrazin-1-yl)pyrrolidin-3-ylamino)pyrazine-2-carbonitrile oxalate]
IC50 [1]: 0.1 to 1 µM

SMILES: CC[C@@H]1C[C@H](NS(=O)(=O)CCC(F)(F)F)CN1c1ncc2cnc3[nH]ccc3n12 [Example #27, N-((3S,5R)-5-ethyl-1-(6H-imidazo[1,5-a]pyrrolo[2,3-e]pyrazin-1-yl)pyrrolidin-3-yl)-3,3,3-trifluoropropane-1-sulfonamide]
IC50 [1]: > 1 µM

SMILES: c1cc2c3c(cnc2[nH]1)CCCN3C1CCCCC1 [Example #28, 1-cyclohexyl-2,3,4,7-tetrahydro-1H-pyrrolo[2,3-h][1,6]naphthyridine]
IC50 [1]: > 1 µM

SMILES: O=S(=O)(NC12CCC(c3n[nH]c4cnc5[nH]ccc5c34)(CC1)CC2)C1CC1 [Example #29, N-(4-(3,6-dihydropyrazolo[4,3-d]pyrrolo[2,3-b]pyridin-1-yl)bicyclo[2.2.2]octan-1-yl)cyclopropanesulfonamide]
IC50 [1]: < 0.1 µM

SMILES: CC[C@@H]1C[C@H](N(C#N)S(=O)(=O)C2CC2)C[C@@H]1c1nnc2cnc3[nH]ccc3n12 [Example #32, N-cyano-N-((1S,3R,4S)-3-ethyl-4-(6H-pyrrolo[2,3-e][1,2,4]triazolo[4,3-a]pyrazin-1-yl)cyclopentyl)cyclopropanesulfonamide]
IC50 [1]: 0.1 to 1 µM

SMILES: C[C@@H]1CCN(C(=O)C2CCC(F)(F)CC2)C[C@@H]1c1ncc2cnc3[nH]ccc3n12 [H.1.1]
IC50 [1]: < 0.1 µM

SMILES: C[C@@H]1CCN(C(=O)CC(F)(F)F)C[C@@H]1c1ncc2cnc3[nH]ccc3n12 [H.1.2]
IC50 [1]: < 0.1 µM

SMILES: C#CCCC(=O)N1CC[C@@H](C)[C@@H](c2ncc3cnc4[nH]ccc4n23)C1 [H.1.6]
IC50 [1]: < 0.1 µM

SMILES: C[C@@H]1CCN(C(=O)CCc2cc(Cl)no2)C[C@@H]1c1ncc2cnc3[nH]ccc3n12 [H.1.10]
IC50 [1]: < 0.1 µM

SMILES: C[C@@H]1CCN(C(=O)C2CC(F)(F)C2)C[C@@H]1c1ncc2cnc3[nH]ccc3n12 [H.1.21]
IC50 [1]: < 0.1 µM

SMILES: C[C@@H]1CCN(C(=O)CCC#N)C[C@@H]1c1ncc2cnc3[nH]ccc3n12 [H.1.25]
IC50 [1]: < 0.1 µM

SMILES: O=C(C1CC(F)(F)C1)N1CCC[C@@H](c2ncc3cnc4[nH]ccc4n23)C1 [H.4.1]
IC50 [1]: 0.1 to 1 µM

SMILES: C[C@@H]1CCN(C(=O)N2CCCCC2)C[C@@H]1c1ncc2cnc3[nH]ccc3n12 [I.1.1, ((3R,4R)-3-(6H-imidazo[1,5-a]pyrrolo[2,3-e]pyrazin-1-yl)-4-methylpiperidin-1-yl)(piperidin-1-yl)methanone]
IC50 [1]: < 0.1 µM

SMILES: C[C@@H]1CCN(C(=O)N2CCOCC2)C[C@@H]1c1ncc2cnc3[nH]ccc3n12 [I.1.2]
IC50 [1]: < 0.1 µM

SMILES: O=C(N1CCCC1)N1CCC[C@@H](c2ncc3cnc4[nH]ccc4n23)C1 [I.3.1]
IC50 [1]: 0.1 to 1 µM

SMILES: C[C@@H]1CCN(C(=O)N2CCC[C@@H]2C#N)C[C@@H]1c1ncc2cnc3[nH]ccc3n12 [J.2.2]
IC50 [1]: < 0.1 µM

SMILES: C[C@@H]1CCN(C(=O)N2CCC[C@H]2C#N)C[C@@H]1c1ncc2cnc3[nH]ccc3n12 [J.2.3]
IC50 [1]: < 0.1 µM

SMILES: C[C@@H]1CCN(C(=O)N2CC(F)(F)C2)C[C@@H]1c1ncc2cnc3[nH]ccc3n12 [J.2.5]
IC50 [1]: < 0.1 µM

Continued, values first:

IC50 [1]: < 0.1 µM
SMILES: C[C@@H]1CCN(C(=O)N2CCC2)C[C@@H]1c1ncc2cnc3[nH]ccc3n12 [J.2.6]

IC50 [1]: < 0.1 µM
SMILES: C[C@@H]1CCN(C(=O)N2CC[C@@H](F)C2)C[C@@H]1c1ncc2cnc3[nH]ccc3n12 [J.2.7]

IC50 [1]: < 0.1 µM
SMILES: C[C@@H]1CCN(C(=O)N2CCC(F)(F)C2)C[C@@H]1c1ncc2cnc3[nH]ccc3n12 [J.2.8]

IC50 [1]: < 0.1 µM
SMILES: C[C@@H]1CCN(C(=O)N2CCC[C@@H]2CO)C[C@@H]1c1ncc2cnc3[nH]ccc3n12 [J.2.9]

IC50 [1]: < 0.1 µM
SMILES: C[C@@H]1CCN(C(=O)N2CC(F)C2)C[C@@H]1c1ncc2cnc3[nH]ccc3n12 [J.2.11]

IC50 [1]: < 0.1 µM
SMILES: C[C@@H]1CCN(C(=O)N2CC[C@H](F)C2)C[C@@H]1c1ncc2cnc3[nH]ccc3n12 [J.2.12]

IC50 [1]: < 0.1 µM
SMILES: C[C@@H]1CCN(C(=O)N2CCC[C@H]2C)C[C@@H]1c1ncc2cnc3[nH]ccc3n12 [J.2.13]

IC50 [1]: < 0.1 µM
SMILES: C[C@@H]1CCN(C(=O)N2CCCCCC2)C[C@@H]1c1ncc2cnc3[nH]ccc3n12 [J.2.14]

IC50 [1]: < 0.1 µM
SMILES: C[C@@H]1CCN(C(=O)N2CCC[C@@H]2C(F)(F)F)C[C@@H]1c1ncc2cnc3[nH]ccc3n12 [J.2.15]

IC50 [1]: < 0.1 µM
SMILES: O=C(N1CCC[C@@H](c2ncc3cnc4[nH]ccc4n23)C1)N1CC(F)(F)C1 [J.3.1]

IC50 [1]: < 0.1 µM
SMILES: O=C(N1CCC[C@@H](c2ncc3cnc4[nH]ccc4n23)C1)N1CCC(F)(F)C1 [J.3.2]

IC50 [1]: < 0.1 µM
SMILES: N#CC1CN(C(=O)N2CCC[C@@H](c3ncc4cnc5[nH]ccc5n34)C2)C1 [J.3.4]

IC50 [1]: 0.1 to 1 µM
SMILES: CC1(C)CCN(C(=O)N2CCC[C@@H](c3ncc4cnc5[nH]ccc5n34)C2)C1 [J.3.6]

IC50 [1]: 0.1 to 1 µM
SMILES: O=C(N1CCC[C@@H](c2ncc3cnc4[nH]ccc4n23)C1)N1CCCC(F)(F)C1 [J.3.7]

IC50 [1]: 0.1 to 1 µM
SMILES: N#CC1CCN(C(=O)N2CCC[C@@H](c3ncc4cnc5[nH]ccc5n34)C2)CC1 [J.3.8]

IC50 [1]: < 0.1 µM
SMILES: CC1(C)CCN(C(=O)N2CCC[C@@H](c3ncc4cnc5[nH]ccc5n34)C2)CC1 [J.3.10]

IC50 [1]: < 0.1 µM
SMILES: O=C(N1CCC(Cl)CC1)N1CCC[C@@H](c2ncc3cnc4[nH]ccc4n23)C1 [J.3.11]

IC50 [1]: 0.1 to 1 µM
SMILES: O=S(=O)(NC12CCC(c3cnc4cnc5[nH]ccc5n34)(CC1)CC2)C1CC1 [K.3.1]

IC50 [1]: < 0.1 µM
SMILES: CC[C@@H]1C[C@H](NS(=O)(=O)CCC(F)(F)F)CN1c1cnc2cnc3[nH]ccc3n12 [K.4.1]

IC50 [1]: < 0.1 µM
SMILES: CC[C@@H]1C[C@H](NS(=O)(=O)CC(F)(F)F)C[C@@H]1c1nnc2cnc3[nH]ccc3n12 [K.5.1]

IC50 [1]: 0.1 to 1 µM
SMILES: CC[C@@H]1C[C@H](NS(=O)(=O)C2CC2)C[C@@H]1c1nnc2cnc3[nH]cc(C)c3n12 [LL.1.1]

IC50 [1]: > 1 µM
SMILES: CC[C@@H]1C[C@H](N(CO)S(=O)(=O)C2CC2)C[C@@H]1c1nnc2cnc3[nH]cc(C)c3n12 [LL.1.2]

IC50 [1]: > 1 µM
SMILES: CC[C@@H]1C[C@H](NS(=O)(=O)C2CC2)C[C@@H]1c1nnc2cnc3[nH]cc(C#N)c3n12 [LL.1.3]

IC50 [1]: > 1 µM
SMILES: CC[C@@H]1C[C@H](S(=O)(=O)CC(F)(F)F)C[C@@H]1c1nnc2cnc3[nH]ccc3n12 [LL.1.4]

IC50 [1]: 0.1 to 1 µM
SMILES: CC[C@@H]1C[C@H](NS(=O)(=O)C2CC2)C[C@@H]1c1nnc2cnc3[nH]cc(I)c3n12 [Preparation #GGG.1, N-((1S,3R,4S)-3-ethyl-4-(8-iodo-6H-pyrrolo[2,3-e][1,2,4]triazolo[4,3-a]pyrazin-1-yl)cyclopentyl)cyclopropanesulfonamide]

IC50 [1]: < 0.1 µM
SMILES: C[C@@H]1CCN(C(=O)Nc2ccc(C#N)cc2)C[C@@H]1c1ncc2cnc3[nH]ccc3n12 [QQ.1.4]

IC50 [1]: < 0.1 µM
SMILES: CS(=O)(=O)Nc1ccc(-c2nc(C3CCCCC3)n3c2cnc2[nH]ccc23)cc1 [UUU.1.1]

IC50 [1]: > 1 µM
SMILES: CC[C@@H]1C[C@H](NS(=O)(=O)CCn2cc(C#N)cn2)C[C@@H]1c1nnc2cnc3[nH]ccc3n12 [YY.1.1, 2-(4-cyano-1H-pyrazol-1-yl)-N-((1S,3R,4S)-3-ethyl-4-(6H-pyrrolo[2,3-e][1,2,4]triazolo[4,3-a]pyrazin-1-yl)cyclopentyl)ethanesulfonamide]

IC50 [1]: > 1 µM
SMILES: CC[C@@H]1C[C@H](NS(=O)(=O)CCn2cncn2)C[C@@H]1c1nnc2cnc3[nH]ccc3n12 [YY.1.2]
